According to US4404230A, “4-Hydroxy-1,2-Benzisothiazol-3(2H)-one-1,1-dioxides and salts thereof” (priority 1980, dated 1983):

Columns and labels:
Aspergillus niger = assay: Fungistasis, serial dilution test; assay type: cell-based; conditions: 320 μg/ml
Protocol: (§1) Substance B was tested with regard to its bacteria- and fungi-inhibiting effect by the serial dilution test and agar diffusion test.

[1] = test system: Trychophyton mentagrophytes ATCC 9129; assay: Fungistasis, serial dilution test; assay type: cell-based; conditions: 320 μg/ml
Protocol: as §1

[2] = test system: Candida albicans ATCC 10231; assay: Fungistasis, serial dilution test; assay type: cell-based; conditions: 320 μg/ml
Protocol: as §1

mice [3] = assay: Ability of mice to hold themselves in rotating cylinders (muscle relaxing and/or ataxic effect); assay type: in vivo, Chbb:NMRI-mice; conditions: 400 mg/kg p.o.; for Animals which fell out: N = 10
Protocol: In analogy to the method described by Young and Lewis [Science 105, 368 (1947)], 10 female Chbb:NMRI-mice (SPF) having a body weight of 20-26 gm were tested to determine whether they were able to hold themselves in rotating cylinders after oral administration of 400 mg/kg of substance in aqua dist. The measurements were carried out 30-60, 90-120, 210-240 and 270-300 minutes after administration.

Mouse = assay: Test for acute toxicity, mouse; conditions: for Animals which died: 10 animals
Protocol: (§2) The acute toxicity was determined after oral administration of substance B to male and female mice, rats and dogs. The substance was administered to mice and rats in the form of a suspension in tylose and to dogs in the form of a solution in water.

thrombocyte aggregation = assay: Effect on thrombocyte aggregation induced by collagen; assay type: cell-based; conditions: 1×10^-4 mol/liter, collagen-induced
Protocol: The thrombocyte aggregation was measured according to Born and Cross [J. Physiol. 170, 397 (1964)] in platelet-rich plasma obtained by centrifuging citrate blood. The change in the maximum aggregation rate in % compared with a control, and the percent change in the "optical density" were the measured parameters. The aggregation was induced by collagen.

mice [4] = assay: Effect on the duration of hexobarbital anesthesia in mice; assay type: in vivo, Chbb:NMRI-mice; conditions: 100 mg/kg p.o.
Protocol: According to Winter [Pharmacol. exp. Ther. 94, 7, (1948)], 100 mg/kg of substance B in a suspension of 1% tylose were administered perorally to 10 male Chbb:NMRI-mice (SPF) having a body weight of 20 to 26 gm. A control group received only the suspension agent. After 1 hour all animals were injected i.p. with 80 mg/kg of hexobarbital. The mice were put on a metal plate at 37° C. and the time from the beginning of the loss of the righting reflex until the recurrence of this reflex was measured as the duration of the anesthesia. This time difference was calculated in percent with regard to that of the control group.

rats = assay: Effect on choleresis in rats; assay type: in vivo, Chbb:THOM-rats
Protocol: A cannula was tied to the ductus choledochus of anesthetized, fasted male Chbb:THOM-rats (SPF) having a body weight of 180-220 gm, and the rate of flow of bile liquid was registered via a drop counter. 100 or 200 mg/kg of substance B in aqua dist. solution were administered intraduodenally to each of 10 animals. A control group received only the solvent. The number of the drops received within 1 hour before the treatment was compared with the number of the drops received within 1-5 hours after treatment.
In Table 10 the average number of drops 1-5 hours after treatment is shown in percent, compared with the values before treatment.

anesthetized cats = assay: Effect on the blood circulation in anesthetized cats; assay type: in vivo; conditions: 10 mg/kg i.v.
Protocol: In 3 adult anesthetized cats the following parameters were measured:
The arterial blood pressure in the Arteria carotis by means of a Statham pressure transducer;
The heart rate by means of a Grass-tachograph;
The respiration rate by means of a Fleisch pneumotachograph;
10 mg/kg of substance B as a solution in aqua dist. were administered i.v.

taste testers = assay: Determination of the relative sweetening power in comparison to saccharose; assay type: in vivo; conditions: compared with 3% aqueous solution of saccharose
Excerpt: The relative sweetening power (often also defined as degree of sweetness) of sweetening agents in comparison with saccharose (cane sugar) varies considerably with concentration. […] Therefore, for the determination of the relative sweetening power of the test compounds a 3% aqueous solution of saccharose was always used for comparison.

[5] = test system: Salmonella typhimurium TA 98, TA 100, TA 1535, TA 1537 and TA 1538; assay: Test for mutagenic effects (AMES-system), all strains together; assay type: cell-based
Protocol: Compound B was tested according to the AMES-system [Mutation Research 31, 347-364 (1975)] for mutagenic properties. In order to show the whole spectrum of induced molecular DNA-damage (base substitutions, frame-shift mutations, deletions) the auxotrophic bacterial strains Salmonella typhimurium TA 98, TA 100, TA 1535, TA 1537 and TA 1538 were used as genetic indicators.
The tests for all microorganisms were carried out such that the effect of the test compound on a microsomal enzyme system together with the corresponding co-factors could be tested, and furthermore to determine the effect on enzyme induction. The tests were performed without an activating system and in the presence of an activating system. For the in-vitro-activation S-9 supernatants (fractions of the endoplasmatic reticulum) of normal, i.e. not pretreated rats and of rats induced by aroclor 1254 (500 mg/kg) wer used. For the S-9 induced fraction, 3 different concentrations were tested.
Compound B was tested at concentrations of 0.25, 2.5, 5 and 10 mg/plate.

Dog = assay: Test for acute toxicity, dog; conditions: for Animals which died: 2 animals
Protocol: as §2

[6] = vs values before administration, N = 3

O=C1NS(=O)(=O)c2cccc(O)c21.[Na]
inhibiting effect (Aspergillus niger): did not show any inhibiting effect | inhibiting effect [1]: did not show any inhibiting effect | inhibiting effect [2]: did not show any inhibiting effect | effect on holding ability of mice (in words) (mice [3]): does not affect the holding ability of mice | muscle relaxing or coordination inhibiting effect (in words) (mice [3]): no muscle relaxing or coordination inhibiting effect | Animals which fell out (mice [3]; 30-60 min): 2 | Animals which fell out (mice [3]; 90-120 min): 2 | Animals which fell out (mice [3]; 210-240 min): 1 | Animals which fell out (mice [3]; 270-300 min): 0 | Animals which died (Mouse; 10 g/kg oral, 1 day): 0 | Animals which died (Mouse; 10 g/kg oral, 7 days): 0 | Animals which died (Mouse; 10 g/kg oral, 14 days): 0 | deaths (in words) (Mouse; 10 g/kg oral, during the observation time): no animals died | behavior (Mouse; mouse, in vivo, po): completely normal behavior | toxic symptoms (Mouse; mouse, in vivo, po): no toxic symptoms could be observed | effect on thrombocyte aggregation (in words) (thrombocyte aggregation): does not show any effect on thrombocyte aggregation induced by collagen | effect on duration of hexobarbital anesthesia (in words) (mice [4]): does not show any effect on the duration of hexobarbital anesthesia | Duration of anesthesia (mice [4]; hexobarbital 80 mg/kg i.p.): 15.65 ± 6.32 min | Duration of anesthesia, % of control (mice [4]; hexobarbital 80 mg/kg i.p.): 106% | Choleresis in %, compared with the values before treatment (rats; 100 mg/kg i.d., 1 hour): 97% | Choleresis, average number of drops (rats; 100 mg/kg i.d., 1 hour): 53.3 drops/ hr | Choleresis in %, compared with the values before treatment (rats; 100 mg/kg i.d., 2 hours): 94% | Choleresis, average number of drops (rats; 100 mg/kg i.d., 2 hours): 51.7 drops/ hr | Choleresis in %, compared with the values before treatment (rats; 100 mg/kg i.d., 3 hours): 92% | Choleresis, average number of drops (rats; 100 mg/kg i.d., 3 hours): 50.7 drops/ hr | Choleresis in %, compared with the values before treatment (rats; 100 mg/kg i.d., 4 hours): 91% | Choleresis, average number of drops (rats; 100 mg/kg i.d., 4 hours): 49.9 drops/ hr | Choleresis in %, compared with the values before treatment (rats; 100 mg/kg i.d., 5 hours): 90% | Choleresis, average number of drops (rats; 100 mg/kg i.d., 5 hours): 49.5 drops/ hr | Choleresis in %, compared with the values before treatment (rats; 200 mg/kg i.d., 1 hour): 94% | Choleresis, average number of drops (rats; 200 mg/kg i.d., 1 hour): 44.1 drops/ hr | Choleresis in %, compared with the values before treatment (rats; 200 mg/kg i.d., 2 hours): 92% | Choleresis, average number of drops (rats; 200 mg/kg i.d., 2 hours): 43.1 drops/ hr | Choleresis in %, compared with the values before treatment (rats; 200 mg/kg i.d., 3 hours): 92% | Choleresis, average number of drops (rats; 200 mg/kg i.d., 3 hours): 43.1 drops/ hr | Choleresis in %, compared with the values before treatment (rats; 200 mg/kg i.d., 4 hours): 92% | Choleresis, average number of drops (rats; 200 mg/kg i.d., 4 hours): 43.5 drops/ hr | Choleresis in %, compared with the values before treatment (rats; 200 mg/kg i.d., 5 hours): 94% | Choleresis, average number of drops (rats; 200 mg/kg i.d., 5 hours): 44.4 drops/ hr | effect on choleresis (in words) (rats; 100 and 200 mg/kg i.d.): does not show any intraduodenal effects on choleresis in rats | effect on arterial blood pressure, heart rate and respiration rate (in words) (anesthetized cats): does not show any effect on the arterial blood pressure, the heart rate and the respiration rate | Change in % blood pressure (anesthetized cats; [6]): +1% | Change in % heart rate (anesthetized cats; [6]): -1% | Change in % respiration rate (anesthetized cats; [6]): -2% | Relative sweetening power (Saccharose = 1) (taste testers): 210 | effect on enzyme induction and the activating fraction upon the reversion rate [5]: No effect on enzyme induction and the activating fraction upon the reversion rate was detected | mutagenicity, overall [5]: not mutagenic | colonies counted on the test plates ([5]; each test strain): showed the normal spontaneous range for each test strain | Animals which died (Dog; 5 g/kg oral, 1 day): 0 | Animals which died (Dog; 5 g/kg oral, 7 days): 0 | Animals which died (Dog; 5 g/kg oral, 14 days): 0 | deaths (in words) (Dog; 5 g/kg oral, during the observation time): no animals died | behavior (Dog; dog, in vivo, po): completely normal behavior | toxic symptoms (Dog; dog, in vivo, po): no toxic symptoms could be observed
